Reference: patent US20120034608A1, “MICRORNA AS A BIOMARKER OF PANCREATIC ISLET BETA-CELL ENGAGEMENT” (Merck Sharp & Dohme Corp., priority 2009, published 2012)

How the values were obtained:
Type in all cases: cell-based, rat
INS-1 832/3 cells [1] = experiment: TAQMAN real-time quantitative RT-PCR of miRNA expression in INS-1 832/3 cells; details: for increase of the corresponding miRNA transcripts after transfection of precursor: overexpression experiments, TAQMAN real-time quantitative RT-PCR
Experimental: INS-1 832/3 and 832/13 cells were maintained in RPMI 1640 with 10% FBS and 11 mM glucose. For GLP-1 treatment, GLP-1 (7-37) amide (ABCHEM) was added in the media in the presence of 16 mM glucose for 24 hours. Total RNA was extracted with TRIZOL as in Example 1. Rat islet isolation and treatment was as follows. Pancreatic islets of Langerhans were isolated from the pancreas of normal Sprague-Dawley rats (Charles River, Ind.) by collagenase digestion and discontinuous Ficoll gradient separation (15). Islets were cultured for 2 hours in RPMI 1640 medium with 11 mM glucose for recovery from the isolation process. Then 100-200 islets were treated with 50 nM GLP-1 in the media with 11 mM glucose for 24 hours. RNA was extracted with TRIZOL as in Example 1 for quantification of microRNA species.
Fluorogenic TAQMAN detector probes specific for miR-132 (Cat# TM457), miR-212 (Cat# TM515), miR-375 (Cat#TM564), and miR-217 (Cat#1133) were purchased from Applied Biosystems (Foster City, Calif.). The TAQMAN RT-PCR reactions were performed according to the manufacturer's instructions.
Relative miRNA levels for the miRNAs of interest were determined by real-time reverse transcription reaction using the ABI PRISM 7900 Sequence Detection System from Applied Biosystems (Foster City, Calif.) according to the manufacturer's protocol. Briefly, 10 ng of total RNA was mixed with 1 U MultiScribe Reverse Transcriptase, 0.25 U RNase Inhibitor, 3 μL hairpin-looped miRNA-specific RT primer, 1 mM dNTPs and 1× Reverse Transcription Buffer in a total volume of 15 μL. The mixture was incubated at 16° C. for 30 minutes, 42° C. for another 30 minutes, and the reaction was stopped by heating to 85° C. for 5 minutes. Real time PCR reaction was set up in 20 μL volume with 1.33 μL first strand cDNA, 1× TAQMAN MicroRNA Assay Mix and 1× TAQMAN Universal PCR Master Mix. After activation of the AMPLITAQ Gold DNA polymerase at 95° C. for 10 minutes, 40 cycles of two-step PCR were run (95° C. for 15 seconds and 60° C. for 60 seconds). Data were collected and analyzed with SDS v.2.2.2 software (Applied Biosystems). 4.5S RNA or U6 probe (Applied Biosystems) was used as a reference to determine the relative abundance of each miRNA in different samples. TAQMAN RT-PCR was performed according the manufacturer's instructions.
The absolute miRNA levels were determined by reverse transcription reactions in GeneAmp PCR system 9700 followed by amplification using the ABI PRISM 7900HT Sequence Detection System from Applied Biosystems (Foster City, Calif.) through 40 cycles. 4.5S RNA (H) probe (Cat#TM1716) or U6 (Cat#TM1973) was used as reference to determine the relative abundance of each miRNA in different samples. The induction of miR-132 and miR-212 expression by GLP-1 started around 4 hour post-GLP-1 treatment, peaked at 24 hours and was sustained up to 48 hours (FIG. 2).

INS-1 832/13 cells [2] = experiment: LANCE cAMP assay in INS-1 832/13 cells; details: for cAMP levels: cells overexpressing the precursor vs scramble control
Excerpt: (§1) We overexpressed the precursors of miR-132 and miR-212 to evaluate their possible contribution to β-cell function. MicroRNA miR-375 was included as a control as it been reported to have an inhibitory effect on GDIS (Poy et al., Nature 432: 226-230 (2004)). Chemically modified Pre-miR™ miRNA precursor molecules and Anti-miR™ miRNA inhibitors were purchased from Ambion (Foster City, Calif.). miRCURY LNA™ microRNA knockdown oligonucleotides were purchased from Exiqon (Woburn, Mass.). The oligonucleotide molecules were delivered to the cells by the Nucleofector Device (Amaxa, Gaithersburg, Md.). In brief, INS-1 cells were trypsinized, centrifuged, and resuspended in 100 μl Nucleofector solution V. Then 100-500 pmole RNA oligonucleotides were transfected to 3-million cells at the concentration of 1-5 μM with the Amaxa Nucleofector Device. Scramble controls from the vendors were used with the same transfection method. After electroporation, the cells were transferred to regular culture medium and then split into replicates in 96-well plates. Insulin secretion assay or LANCE cAMP assay were performed 48 hours post electroporation.
(§2) For the Lance cAMP assay, INS1 832/3 and 832/13 cells were grown to near confluency in flasks. 9000 cells were incubated with GLP-1 or Exendin-4 in stimulation buffer at concentrations as indicated in figure legends for 1 hour at 37° C. cAMP levels were measured using LANCE cAMP assay kit in 384-well format according to manufacture's protocol (Perkin Elmer, Waltham, Mass.). Counts were calculated to cAMP concentrations using a cAMP standard curve. Each condition was measured in quadruplicate.

INS-1 832/3 cells [3] = experiment: LANCE cAMP assay in INS-1 832/3 cells; details: one hour stimulation, 5.5 mM glucose
Experimental: as §2

INS-1 832/13 cells [4] = experiment: glucose dependent insulin secretion (GDIS) assay in INS-1 832/13 cells; details: transfected cells vs scramble control
Excerpt: as §1
(§3) INS-1 cell glucose dependent insulin secretion (GDIS) assay was performed as follows. The GDIS assay was performed with cells grown to near confluency in 96-well plates. Prior to the assay, cells were washed once with PBS and pre-incubated for two hours in freshly prepared Krebs-Ringer Bicarbonate (KRB) medium without glucose. The medium were then replaced with KRB with 2, 8 or 16 mM glucose or along with 10 nM GLP-1. The cells were incubated for another two hours in a CO2 incubator. The media was then removed at the end of incubation, and assayed for insulin levels by Ultra-sensitive Rat Insulin ELISA kit (ALPCO, Salem, N.H.) or insulin immunoassay by Gyrolab workstation (GYROS AB, Uppsala, Sweden). Intracellular insulin was extracted by acid ethanol method for measuring intracellular insulin content. Total protein was measured by Pierce 660 nm Protein Assay from Pierce Biotechnology, Inc. (Rockford, Ill.).

INS-1 832/3 cells [5] = experiment: TAQMAN quantification of insulin (Ins1) transcripts in INS-1 832/3 cells; details: normalized to β-actin
Excerpt: as §1
We further measured the insulin content and found it was unchanged by miR-132 or miR-212 overexpression (FIG. 7B). […] Furthermore, we measured insulin transcripts by TAQMAN analysis in cells over-expressing these microRNA molecules. Ins1 TAQMAN probe from Applied Biosystems (Foster City, Calif.) was used to measure insulin transcript levels and normalized to β-actin. […] In this series of experiments, miR-132, miR-212 and miR-375 transcripts were increased by about 1000-fold, 2000-fold, and 8-fold, respectively, as assayed by TAQMAN real-time quantitative RT-PCR.

INS-1 832/3 cells [6] = experiment: glucose dependent insulin secretion (GDIS) assay in INS-1 832/3 cells; details: for basal insulin secretion at low glucose: 2 mM glucose; for basal insulin secretion at low glucose / insulin release stimulated by KCl / insulin release as percentage of insulin secretion of intracellular insulin content / glucose-dependent insulin secretion (GDIS): 48 hours post-transfection; for GLP-1 potentiation of GDIS: 16 mM glucose + 10 nM GLP-1, 48 hour post transfection; for GLP-1 potentiation of GDIS / glucose-dependent insulin secretion (GDIS): vs scramble control; for insulin release stimulated by KCl: 30 mM KCl; for glucose-dependent insulin secretion (GDIS): two hour incubation in KRB; for insulin content: cell lysates, normalized to total protein
Excerpt: as §1, §3

[7] = 50 nM GLP-1, 50 nM Exendin-4, 5 μM IBMX, 1 μM Foskolin (FIG. 6A)

## Exendin-4: GLP-1 analog, cAMP raising agent
INS-1 832/3 cells [1]; [7]
  miR-132 expression: significantly increased
  miR-212 expression: significantly increased
  miR-375 expression: remained unchanged
INS-1 832/13 cells [2]; one hour stimulation, 5.5 mM glucose
  cAMP accumulation: loss of such response
INS-1 832/3 cells [3]
  cAMP accumulation: dose-dependent accumulation

## miR-132: chemically modified Pre-miR miRNA precursor molecule (Ambion) transfected to overexpress miR-132 (guide UAACAGUCUACAGCCAUGGUCG; chemically modified Pre-miR precursor, pattern not given here)
INS-1 832/13 cells [4]
  effect of GLP-1 (GLP-1 potentiation): augmented
  insulin secretion (GDIS): significantly increased
INS-1 832/3 cells [1]
  increase of the corresponding miRNA transcripts after transfection of precursor: about 1000 fold
INS-1 832/13 cells [2]
  cAMP levels: no changes
INS-1 832/3 cells [5]
  insulin (Ins1) transcripts: no effect
INS-1 832/3 cells [6]
  basal insulin secretion at low glucose: unchanged
  GLP-1 potentiation of GDIS: robustly increased
  insulin release stimulated by KCl: significantly enhanced
  insulin release as percentage of insulin secretion of intracellular insulin content: significantly increased
  glucose-dependent insulin secretion (GDIS): significantly enhanced
  insulin content: unchanged

## miR-212: chemically modified Pre-miR miRNA precursor molecule (Ambion) transfected to overexpress miR-212 (guide UAACAGUCUCCAGUCACGGCC; chemically modified Pre-miR precursor, pattern not given here)
INS-1 832/13 cells [4]
  effect of GLP-1 (GLP-1 potentiation): augmented
  insulin secretion (GDIS): significantly increased
INS-1 832/3 cells [1]
  increase of the corresponding miRNA transcripts after transfection of precursor: ~2000 fold
INS-1 832/13 cells [2]
  cAMP levels: no changes
INS-1 832/3 cells [5]
  insulin (Ins1) transcripts: no effect
INS-1 832/3 cells [6]
  basal insulin secretion at low glucose: unchanged
  GLP-1 potentiation of GDIS: enhanced
  insulin release stimulated by KCl: significantly enhanced
  insulin release as percentage of insulin secretion of intracellular insulin content: significantly increased
  glucose-dependent insulin secretion (GDIS): significantly enhanced
  insulin content: unchanged

## miR-375: chemically modified Pre-miR miRNA precursor molecule (Ambion) transfected to overexpress miR-375, control (guide UUUGUUCGUUCGGCUCGCGUGA; chemically modified Pre-miR precursor, pattern not given here)
INS-1 832/3 cells [1]
  increase of the corresponding miRNA transcripts after transfection of precursor: ~8 fold
INS-1 832/3 cells [5]
  insulin (Ins1) transcripts: moderately down-regulated
INS-1 832/3 cells [6]
  GLP-1 potentiation of GDIS: not
  insulin release as percentage of insulin secretion of intracellular insulin content: decreased
  glucose-dependent insulin secretion (GDIS): significantly suppressed
  insulin content: reduction
